Reference: ChEMBL document CHEMBL1123754, “N6-phenyladenosines: pronounced effect of phenyl substituents on affinity for A2 adenosine receptors” (J Med Chem, 1987)

Tests used:
Adenosine receptor A1 [1] = biological target: T1, Adenosine receptor A1 (Gallus gallus, UniProt P49892); assay: Binding affinity for Adenosine A1 receptor using [125I]-ABA in chick cerebellar membrane; format: cell membranes, Cerebellum
T1 sequence (P49892 whole entry): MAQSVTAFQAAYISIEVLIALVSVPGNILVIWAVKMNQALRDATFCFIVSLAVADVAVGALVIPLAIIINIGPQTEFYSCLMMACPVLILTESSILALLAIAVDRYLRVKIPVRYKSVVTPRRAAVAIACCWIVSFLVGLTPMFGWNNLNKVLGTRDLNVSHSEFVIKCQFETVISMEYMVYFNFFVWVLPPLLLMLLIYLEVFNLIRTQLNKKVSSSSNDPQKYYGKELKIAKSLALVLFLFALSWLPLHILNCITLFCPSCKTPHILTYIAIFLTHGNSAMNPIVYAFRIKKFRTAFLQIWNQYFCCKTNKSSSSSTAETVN

[2] = Relative affinities for adenosine A2 and A1 receptors
Adenosine A2 receptor = Adenosine A2 receptor (Rattus norvegicus, UniProt P29276+P30543)
Description: Displacement of [3H]-NECA from adenosine A2 receptor of rat striatal membrane

Adenosine receptor A1 [3] = biological target: T1, Adenosine receptor A1; assay: Displacement of [125I]ABA from adenosine A1 receptor of chick cerebellar membrane

Row | Structure (SMILES) | IC50 (Adenosine receptor A1 [1]) [nM] | Selectivity [2] | IC50 (Adenosine A2 receptor) [nM] | IC50 (Adenosine receptor A1 [3]) [nM]
1 | OC[C@H]1OC(n2cnc3c(Nc4cccc(O)c4)ncnc32)[C@H](O)[C@@H]1O (stereo partly drawn) | 11.1 | 690 | 7640 | –
2 | CCc1cccc(Nc2ncnc3c2ncn3C2O[C@H](CO)[C@@H](O)[C@H]2O)c1 (stereo partly drawn) | – | 403 | 10200 | 25.3
3 | CCNC(=O)[C@H]1O[C@@H](n2cnc3c(N)ncnc32)[C@H](O)[C@@H]1O [NECA] | – | – | – | 17
4 | OC[C@H]1O[C@@H](n2cnc3c(Nc4ccccc4)ncnc32)[C@H](O)[C@@H]1O [N6-PHENYLADENOSINE] | – | 140 | 660 | 4.6
5 | OC[C@H]1OC(n2cnc3c(Nc4cccc(F)c4)ncnc32)[C@H](O)[C@@H]1O (stereo partly drawn) | – | 155 | 1600 | 10.3
6 | Nc1cccc(Nc2ncnc3c2ncn3C2O[C@H](CO)[C@@H](O)[C@H]2O)c1 (stereo partly drawn) | – | 225 | 10100 | 45.1
7 | OC[C@H]1OC(n2cnc3c(Nc4cccc(B(O)O)c4)ncnc32)[C@H](O)[C@@H]1O (stereo partly drawn) | – | 220 | 9300 | 42.1
8 | OC[C@H]1O[C@@H](n2cnc3c(NC4CCCCC4)ncnc32)[C@H](O)[C@@H]1O | – | – | – | 2.5
9 | OC[C@H]1OC(n2cnc3c(Nc4cccc(I)c4)ncnc32)[C@H](O)[C@@H]1O (stereo partly drawn) | – | 620 | 11900 | 19

The next lines start with the values.

Row | IC50 (Adenosine receptor A1 [1]) [nM] | Selectivity [2] | IC50 (Adenosine A2 receptor) [nM] | IC50 (Adenosine receptor A1 [3]) [nM] | Structure (SMILES)
10 | – | 150 | 1280 | 8.5 | OC[C@H]1OC(n2cnc3c(Nc4ccc(I)cc4)ncnc32)[C@H](O)[C@@H]1O (stereo partly drawn)
11 | – | 75 | 960 | 12.8 | CCc1ccc(Nc2ncnc3c2ncn3C2O[C@H](CO)[C@@H](O)[C@H]2O)cc1 (stereo partly drawn)
12 | – | 110 | 920 | 8.5 | Cc1ccc(Nc2ncnc3c2ncn3C2O[C@H](CO)[C@@H](O)[C@H]2O)cc1 (stereo partly drawn)
13 | – | 65 | 860 | 13.1 | OC[C@H]1OC(n2cnc3c(Nc4ccc(F)cc4)ncnc32)[C@H](O)[C@@H]1O (stereo partly drawn)
14 | – | 275 | 1760 | 6.4 | COc1ccc(Nc2ncnc3c2ncn3[C@@H]2O[C@H](CO)[C@@H](O)[C@H]2O)cc1
